In the supplement of paper PMC11061612:

What was measured:
Assay in all cases: Bliss excess, mean over the matrix (fraction); higher = more synergy
ES7 (Ewing's Sarcoma) = tested on: ES7 (Ewing's Sarcoma)
Outline: (§1)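 Bliss excess equals the observed combination effect minus the expected value EA + EB − EA·EB, where EA and EB are the effects of each agent alone. Combination Emax is the second-highest inhibition within the matrix. Inhibition was scaled from CellTiter-Glo 2.0 luminescence, with 0 set by vehicle wells and 1 by blank wells, after 72 hours of two-drug dosing of cells plated in 1536-well plates.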

[1] = tested on: MDA-MB-157 (Breast Carcinoma)
Outline: as §1

[2] = tested on: NCI-H1299 (Non-Small Cell Lung Carcinoma)
Outline: as §1

J82 (Bladder Carcinoma) = tested on: J82 (Bladder Carcinoma)
Outline: as §1

[3] = tested on: KARPAS-1106P (B-Cell Non-Hodgkin's Lymphoma)
Outline: as §1

[4] = tested on: EM-2 (Chronic Myelogenous Leukemia)
Outline: as §1

[5] = tested on: HT-29 (Colorectal Carcinoma)
Outline: as §1

IGR-1 (Melanoma) = tested on: IGR-1 (Melanoma)
Outline: as §1

[6] = tested on: SW1783 (Low Grade Glioma)
Outline: as §1

[7] = tested on: C3A (Hepatocellular Carcinoma)
Outline: as §1

[8] = tested on: TGBC24TKB (Biliary Tract Carcinoma)
Outline: as §1

[9] = tested on: MFH-ino (Other Solid Carcinomas)
Outline: as §1

[10] = tested on: KATOIII (Gastric Carcinoma)
Outline: as §1

[11] = tested on: NCI-H1793 (Lung Adenocarcinoma)
Outline: as §1

[12] = tested on: NCI-H1781 (Lung Adenocarcinoma)
Outline: as §1

[13] = tested on: SUIT-2 (Pancreatic Carcinoma)
Outline: as §1

CAL-78 (Chondrosarcoma) = tested on: CAL-78 (Chondrosarcoma)
Outline: as §1

[14] = tested on: DMS-273 (Small Cell Lung Carcinoma)
Outline: as §1

[15] = tested on: SW756 (Cervical Carcinoma)
Outline: as §1

[16] = tested on: OCI-AML2 (Acute Myeloid Leukemia)
Outline: as §1

Structure (SMILES) | Bliss excess (ES7 (Ewing's Sarcoma)) | Bliss excess [1] | Bliss excess [2] | Bliss excess (J82 (Bladder Carcinoma)) | Bliss excess [3] | Bliss excess [4] | Bliss excess [5] | Bliss excess (IGR-1 (Melanoma)) | Bliss excess [6] | Bliss excess [7] | Bliss excess [8] | Bliss excess [9] | Bliss excess [10] | Bliss excess [11] | Bliss excess [12] | Bliss excess [13] | Bliss excess (CAL-78 (Chondrosarcoma)) | Bliss excess [14] | Bliss excess [15] | Bliss excess [16]
CC1(C)CCC(CN2CCN(c3ccc(C(=O)NS(=O)(=O)c4ccc(NCC5CCOCC5)c([N+](=O)[O-])c4)c(Oc4cnc5[nH]ccc5c4)c3)CC2)=C(c2ccc(Cl)cc2)C1 [Venetoclax] + CN(C)CCCOc1ccc(-c2ccc3ncc4c(c3c2)n(C2CCOCC2)c(=O)n4C)cn1 [AZD0156] (first compound max 1 µM, 7x7, partner max 1 µM) | 0.0317 | -0.0087 | -0.004 | 0.0014 | 0.0261 | -0.0045 | -0.0086 | 0.0116 | -0.0532 | -0.0414 | 0.0307 | -0.0403 | -0.0156 | -0.0158 | 0.0048 | 0.0031 | -0.0043 | 0.0156 | -0.0215 | -0.0267
CN(CCO)CC[C@H](CSc1ccccc1)Nc1ccc(S(=O)(=O)NC(=O)c2ccc(N3CCC([C@@H](O)c4ccccc4-c4ccc(Cl)cc4)CC3)cc2)cc1S(=O)(=O)C(F)(F)F [AZD4320] + C=CCn1c(=O)c2cnc(Nc3ccc(N4CCN(C)CC4)cc3)nc2n1-c1cccc(C(C)(C)O)n1 [AZD1775] (first compound max 1 µM, partner max 1 µM) | 0.136 | 0.0043 | -0.0107 | -0.107 | 0.028 | -0.0381 | 0.0055 | 0.146 | 0.0433 | -0.0619 | -0.0323 | -0.0288 | -0.043 | -0.0061 | -0.003 | -0.0088 | 0.073 | -0.0229 | -0.0225 | 0.0312
CC1(C)CCC(CN2CCN(c3ccc(C(=O)NS(=O)(=O)c4ccc(NCC5CCOCC5)c([N+](=O)[O-])c4)c(Oc4cnc5[nH]ccc5c4)c3)CC2)=C(c2ccc(Cl)cc2)C1 [Venetoclax] + C[C@@H](Nc1cc(F)cc(F)c1)c1cc(C(=O)N(C)C)cc2c(=O)cc(N3CCOCC3)oc12 [AZD8186] (first compound max 1 µM, 7x7, partner max 3 µM) | 0.135 | 0.0095 | -0.0492 | -0.0213 | 0.0046 | 0.0104 | -0.0255 | -0.0471 | -0.0258 | -0.0803 | -0.0202 | -0.053 | -0.0555 | 0.0197 | -0.0341 | -0.0481 | -0.0152 | 0.0274 | -0.0452 | -0.0033
COc1cc2ncnc(Nc3ccc(F)c(Cl)c3)c2cc1OCCCN1CCOCC1 [Gefitinib] + CC(C)n1c(=O)n(C)c2cnc3cc(F)c(-c4ccc(OCCCN5CCCCC5)nc4)cc3c21 [AZD1390] (first compound max 10 µM, 7x7, partner max 0.3 µM) | -0.0916 | -0.0453 | -0.0561 | -0.12 | -0.0393 | -0.0507 | -0.0512 | -0.006 | -0.0571 | -0.11 | -0.0379 | -0.0761 | -0.0113 | -0.0406 | -0.0801 | -0.0527 | -0.0625 | -0.0068 | -0.0551 | -0.041
CCN(CCO)CCCOc1ccc2c(Nc3cc(CC(=O)Nc4cccc(F)c4)[nH]n3)ncnc2c1 [AZD2811] + C[C@@H]1COCCN1C2=NC(=NC(=C2)C3(CC3)[S@](=N)(=O)C)C4=C5C=CNC5=NC=C4 [AZD6738] (first compound max 1 µM, 7x7, partner max 10 µM) | -0.0482 | 0.0031 | -0.0808 | -0.0259 | -0.0713 | -0.0433 | -0.0459 | 0.0315 | -0.0501 | -0.0117 | -0.0407 | -0.0878 | -0.0477 | -0.0341 | 0.0216 | -0.0307 | -0.0799 | -0.0332 | -0.0095 | -0.0145
CN(CCO)CC[C@H](CSc1ccccc1)Nc1ccc(S(=O)(=O)NC(=O)c2ccc(N3CCC([C@@H](O)c4ccccc4-c4ccc(Cl)cc4)CC3)cc2)cc1S(=O)(=O)C(F)(F)F [AZD4320] + CN(C)CCCOc1ccc(-c2ccc3ncc4c(c3c2)n(C2CCOCC2)c(=O)n4C)cn1 [AZD0156] (first compound max 1 µM, 7x7, partner max 1 µM) | 0.0177 | -0.0046 | -0.0462 | -0.0464 | -0.0055 | -0.0192 | -0.0238 | -0.0149 | -0.0298 | -0.0281 | 0.0025 | -0.059 | -0.034 | -0.027 | -0.0694 | -0.0407 | -0.004 | -0.0199 | -0.0362 | -0.0296
Cn1cnc2c(F)c(Nc3ccc(Br)cc3Cl)c(C(=O)NOCCO)cc21 [Selumetinib] + CCN(CCO)CCCOc1ccc2c(Nc3cc(CC(=O)Nc4cccc(F)c4)[nH]n3)ncnc2c1 [AZD2811] (first compound max 10 µM, 7x7, partner max 1 µM) | -0.0524 | -0.0064 | -0.0205 | -0.0611 | 0.0245 | -0.0526 | -0.0042 | -0.007 | -0.0559 | -0.0272 | 0.003 | -0.045 | -0.0148 | -0.0302 | 0.0045 | -0.0526 | -0.0522 | -0.0144 | -0.008 | 0.0545
Cc1c2c(nn1C)CSCc1cc(n(C)n1)CSc1cc(c3ccccc3c1)OCCCc1c(C(=O)O)n(C)c3c-2c(Cl)ccc13 [AZD5991] + C[C@@H]1COCCN1C2=NC(=NC(=C2)C3(CC3)[S@](=N)(=O)C)C4=C5C=CNC5=NC=C4 [AZD6738] (first compound max 1 µM, 7x7, partner max 10 µM) | 0.0521 | -0.0076 | 0.0159 | 0.0009 | 0.0182 | 0.0299 | 0.0165 | 0.105 | 0.0272 | 0.0412 | -0.006 | 0.0319 | -0.0192 | 0.0097 | 0.0103 | -0.0025 | 0.0335 | 0.0196 | 0.02 | 0.0168
CC(=O)Nc1cccc(-n2c(=O)n(C3CC3)c(=O)c3c(Nc4ccc(I)cc4F)n(C)c(=O)c(C)c32)c1 [Trametinib] + Cc1nc(-c2cn3c(n2)-c2ccc(-c4cnn(C(C)(C)C(N)=O)c4)cc2OCC3)n(C(C)C)n1 [Taselisib] (first compound max 1 µM, 7x7, partner max 10 µM) | 0.0164 | 0.0963 | 0.121 | 0.0623 | 0.088 | 0.319 | 0.0526 | 0.15 | -0.027 | 0.147 | 0.196 | 0.148 | 0.0938 | 0.0519 | -0.053 | 0.0928 | 0.0728 | 0.0427 | 0.0988 | 0.0227
CN(CCO)CC[C@H](CSc1ccccc1)Nc1ccc(S(=O)(=O)NC(=O)c2ccc(N3CCC([C@@H](O)c4ccccc4-c4ccc(Cl)cc4)CC3)cc2)cc1S(=O)(=O)C(F)(F)F [AZD4320] + C1CN(CCC1(C(=O)N[C@@H](CCO)C2=CC=C(C=C2)Cl)N)C3=NC=NC4=C3C=CN4 [Capivasertib] (first compound max 1 µM, 7x7, partner max 3 µM) | 0.0083 | -0.0178 | -0.029 | -0.031 | -0.0259 | 0.0261 | -0.0331 | -0.0557 | -0.119 | -0.0904 | 0.0015 | -0.0527 | -0.0385 | -0.0106 | -0.0313 | -0.054 | -0.0482 | -0.0782 | -0.0506 | -0.0333
Cn1cnc2c(F)c(Nc3ccc(Br)cc3Cl)c(C(=O)NOCCO)cc21 [Selumetinib] + CC(C)n1c(=O)n(C)c2cnc3cc(F)c(-c4ccc(OCCCN5CCCCC5)nc4)cc3c21 [AZD1390] (first compound max 10 µM, 7x7, partner max 0.3 µM) | -0.0301 | -0.032 | -0.012 | 0.0142 | -0.0376 | 0.0304 | -0.0043 | -0.0297 | -0.048 | 0.0046 | -0.109 | -0.023 | 0.011 | -0.0503 | -0.0223 | -0.0294 | -0.0665 | -0.0103 | -0.019 | -0.0079
CS(=O)(=O)CCNCc1ccc(-c2ccc3ncnc(Nc4ccc(OCc5cccc(F)c5)c(Cl)c4)c3c2)o1 [Lapatinib] + C[C@@H](Oc1cc(-c2cnn(C3CCNCC3)c2)cnc1N)c1c(Cl)ccc(F)c1Cl [Crizotinib] (first compound max 10 µM, 7x7, partner max 10 µM) | -0.0214 | -0.0086 | -0.0677 | -0.0317 | -0.0483 | -0.0062 | -0.0475 | -0.0282 | -0.0306 | -0.0963 | -0.0058 | -0.0902 | 0.0169 | -0.0351 | -0.0715 | 0.0051 | -0.072 | 0.0146 | -0.0138 | -0.0813
CN(CCO)CC[C@H](CSc1ccccc1)Nc1ccc(S(=O)(=O)NC(=O)c2ccc(N3CCC([C@@H](O)c4ccccc4-c4ccc(Cl)cc4)CC3)cc2)cc1S(=O)(=O)C(F)(F)F [AZD4320] + Cc1cc2ncnn2cc1Nc1ncc2c(n1)n(C1CCOCC1)c(=O)n2C [AZD7648] (first compound max 1 µM, 7x7, partner max 10 µM) | -0.0455 | -0.0225 | -0.0408 | -0.0435 | 0.0101 | 0.0184 | -0.0293 | -0.0137 | -0.044 | -0.0546 | 0.0059 | -0.0545 | -0.0343 | 0.0025 | -0.0388 | -0.0389 | -0.0388 | 0.0127 | -0.051 | 0.0136
Cn1cnc2c(F)c(Nc3ccc(Br)cc3Cl)c(C(=O)NOCCO)cc21 [Selumetinib] + C=CCn1c(=O)c2cnc(Nc3ccc(N4CCN(C)CC4)cc3)nc2n1-c1cccc(C(C)(C)O)n1 [AZD1775] (first compound max 10 µM, partner max 1 µM) | -0.0548 | 0.0096 | -0.02 | -0.0614 | -0.0358 | -0.0618 | -0.0432 | 0.0466 | -0.0939 | -0.022 | -0.0027 | -0.0316 | 0.0186 | -0.0764 | -0.063 | -0.0417 | -0.07 | 0.0035 | -0.0882 | 0.0274
